Source: PubChem BioAssay (NCI)
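These data come from cells grown in 96-well plates and exposed to compound for 48 hours at five concentrations. GI50: concentration for 50% inhibition of growth. At the TGI there is no net growth.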 Where a SMILES comes first, the peptide text is derived from it. [ ]: non-standard residue; d: D form. The star is where a group is joined. Phe(4-NO2) = N[CH](Cc1ccc([N+](=O)[O-])cc1)C(=O)O; Boc = CC(C)(C)OC(=O)*; OBn = c1ccc(CO*)cc1

How the values were obtained:
Assay in all cases: DTP human tumour cell line panel, 48 h
[1] = system: MDA-MB-435
[2] = system: M14 melanoma
[3] = system: NCI-H226 lung
[4] = system: SK-MEL-2 melanoma
[5] = system: CCRF-CEM leukemia
[6] = system: ACHN renal
[7] = system: SR leukemia
[8] = system: UACC-62 melanoma
[9] = system: HCT-116 colon
[10] = system: SN12C renal
[11] = system: RXF 393 renal

SMILES	TGI [1] [µM]	TGI [2] [µM]	TGI [3] [µM]	TGI [4] [µM]	TGI [5] [µM]	TGI [6] [µM]	TGI [7] [µM]	TGI [8] [µM]	TGI [9] [µM]	TGI [10] [µM]	TGI [11] [µM]	GI50 [3] [µM]	GI50 [4] [µM]
CC(=O)NNc1nc(C)c(C(/C=C/c2ccc3c(c2)OCO3)=N/Nc2ccccc2)s1	> 100	> 100	> 100	> 100	> 100	> 100	> 100	> 100	> 100	> 100	> 100	–	–
COc1cc2c3cc1Oc1c(O)c(OC)cc4c1[C@H](Cc1ccc(cc1)Oc1cc(ccc1O)C[C@H]3N(C)CC2)N(C)CC4	27.1	5.62	58.8	25.6	42.7	61	9.15	33.4	22.4	34.6	13.9	–	–
Oc1ccc(Cl)cc1C1=N/C(=N\CN2CCN(C/N=C3/N=C(c4cc(Cl)ccc4O)CC(c4ccccc4)N3)CC2)NC(c2ccccc2)C1 (stereo not given)	> 100	> 100	> 100	> 100	> 100	75.6	> 100	> 100	46.3	64.3	43.3	–	–
CC(C)(CN)CN	> 100	> 100	> 100	> 100	> 100	> 100	> 100	> 100	> 100	> 100	> 100	–	–
OC(C1CCC=NN1C(O)(C(F)(F)F)C(F)(F)F)(C(F)(F)F)C(F)(F)F (stereo not given)	> 10	> 10	> 10	> 10	> 10	> 10	> 10	> 10	> 10	> 10	> 10	–	–
N=C(N)SCCON1C(=O)c2ccccc2C1=O	> 100	> 100	> 100	> 100	> 100	> 100	> 100	> 100	> 100	> 100	> 100	–	–
NCCC(N)C(=O)O (stereo not given)	> 100	> 100	> 100	> 100	> 100	> 100	> 100	> 100	> 100	> 100	> 100	–	–
Cn1c(=O)c2c(nc(NCCCCl)n2CC(=O)O)n(C)c1=O	> 100	> 100	> 100	> 100	> 100	> 100	> 100	> 100	> 100	> 100	> 100	–	–
CC(C)(C)OC(=O)n1cc(C2CNC(=O)C23CCC(=O)N3Cc2ccccc2)c2ccccc21 (stereo not given)	42.3	67.4	41.4	33.4	55.7	–	> 100	38.7	> 100	32.4	44.8	–	–
c1ccc(CNc2c3c(nc4ccccc24)CCC3)cc1	30.6	27.2	35.9	27.2	20.9	40.9	38.9	28	24.9	34.9	30.4	–	–
CC(=O)O/C=C\OC1CCCC1(c1ccccc1)c1ccccc1 (stereo not given)	4.11	5.75	24.8	12.5	5.71	4.36	4.93	17.5	4.19	10.3	5.06	–	–
S=C1c2ccccc2NC(=NC2CCCC2)C2CSCN12 (stereo not given)	> 100	> 100	> 100	> 100	> 100	> 100	> 100	> 100	> 100	> 100	> 100	–	–
COc1cccc(N2C(=O)C3c4[nH]c5ccccc5c4C4c5ccccc5CCC4C3C2=O)c1 (stereo not given)	> 10	> 10	> 7.52	> 10	> 10	> 10	> 4.01	> 10	> 10	> 10	> 10	–	–
Cc1ccc([N+](=O)[O-])cc1S(=O)(=O)Nc1ccc(C2=NN(c3ccc([N+](=O)[O-])cc3[N+](=O)[O-])C(c3ccccc3)C2)cc1 (stereo not given)	47.4	51.1	35.6	33.7	> 100	40.3	90	–	27.4	33.2	33.4	–	–
CCC(CCCN)Nc1cc(OC)cc2cccnc12 (stereo not given)	> 100	> 100	> 100	> 100	> 100	> 100	> 100	> 100	> 100	> 100	> 100	–	–
Brc1ccc(N=NN2CCCCC2)cc1	> 100	> 100	> 100	45.4	56.9	> 100	41.7	> 100	> 100	> 100	> 100	–	–
COC(=O)CCC(NC(=O)OC(C)(C)C)C(=O)NC(Cc1ccc([N+](=O)[O-])cc1)C(=O)NCC(=O)OCc1ccccc1 (stereo not given) (Boc-Glu(OMe)-[Phe(4-NO2)]-Gly-OBn; configuration not given here)	> 100	> 100	> 100	> 100	> 100	> 100	> 100	> 31.6	> 100	> 100	> 72.8	–	–
COc1ccc2nc3cc(Cl)ccc3c(NCCCCCC(=O)NC(COc3cnc4c(ccc5cccnc54)c3)COc3cnc4c(ccc5cccnc54)c3)c2c1	> 100	> 100	21.8	41.5	12.6	> 100	11.7	> 100	14.9	> 100	30.2	–	–
CCOC(C[Se]CC(OCC)OCC)OCC	> 100	> 100	46.4	> 100	95.9	> 100	> 100	> 100	> 100	–	85.8	–	–

SMILES	TGI [1] [µM]	TGI [2] [µM]	TGI [3] [µM]	TGI [4] [µM]	TGI [5] [µM]	TGI [6] [µM]	TGI [7] [µM]	TGI [8] [µM]	TGI [9] [µM]	TGI [10] [µM]	TGI [11] [µM]	GI50 [3] [µM]	GI50 [4] [µM]
CC1=NOC2(C1)/C(=N/O)CCC/C2=N\O (stereo not given)	> 100	> 100	> 100	> 100	> 100	> 100	> 100	> 100	> 100	> 100	> 100	–	–
COc1ccc(N2C=Nn3c(nc4sc(C)c(C)c4c3=O)C2)cc1	> 100	> 100	> 100	> 100	> 100	> 100	> 100	> 100	> 100	> 100	> 100	–	–
Cc1ccc(C(=O)OC[C@H]2CC[C@@H](n3cc(N(C)C4CCCCC4)c(=O)[nH]c3=O)O2)cc1	> 100	32.6	56.6	> 100	93	79.3	> 100	96.2	32.4	39.5	37.7	–	–
C=CC[C@H]1[C@@H](O[Si](C)(C)C(C)(C)C)[C@H](n2ccc(=O)[nH]c2=O)O[C@@H]1CO[Si](C)(C)C(C)(C)C	4.36	3.23	18.6	7.08	16	5.41	5.95	3.5	3.11	3.32	3.63	–	–
COc1cc(-c2nc3cc(F)ccc3s2)ccc1O	> 100	> 100	> 100	> 100	> 100	> 100	75.7	> 100	> 100	> 100	> 100	–	–
Cn1ccnc1S/C(=C\C=C(C#N)C#N)c1ccc(Cl)cc1	2.45	5.02	> 22.8	> 45.5	> 11.2	2.09	0.367	9.36	1.58	> 25.7	5.4	3.97	5.38
CC(=O)c1ccc(N=Nc2ccc3nonc3c2N)cc1	> 100	> 100	> 100	> 100	> 100	> 100	> 100	> 100	> 100	> 100	> 100	–	–
CN1CC2=C(OC(N)=C(C#N)C2c2cccs2)/C(=C/c2cccs2)C1 (stereo not given)	22.5	> 55.9	> 100	> 64.4	> 29	38.7	> 100	> 100	> 49.3	> 100	48.5	–	–
Cn1ccnc1Sc1ccc(/C=N/NC(=O)c2ccccc2O)cc1[N+](=O)[O-]	> 100	> 100	> 100	> 100	> 100	> 100	> 100	> 100	> 100	> 100	> 100	–	–
CSc1c(C(=O)Nc2ccccc2)c(N)nn1-c1ccccc1	> 100	> 100	> 100	> 100	> 100	–	> 100	> 100	> 100	> 100	> 100	–	–
COc1ccc(CCn2cnc3ccccc32)cc1	> 100	> 100	> 100	> 100	> 100	> 100	> 100	> 100	> 100	> 100	> 100	–	–
COC(=O)Cc1ccc2c(c1)Sc1ccc(CC(=O)OC)cc1N2C	> 100	> 100	> 93.5	> 100	> 95.7	> 100	> 79.1	> 100	> 100	> 100	> 100	–	–
Oc1ccc(/C=C\c2nnc(/C=C\c3ccc(O)c(O)c3)s2)cc1O	15.1	26	20	40.7	2.16	15.2	5.22	14	13	24	18.5	–	–
COc1ccc2c(c1)OC(c1cccnc1)C(c1ccccc1)C2=O (stereo not given)	> 100	> 100	> 100	> 100	> 100	> 100	> 100	> 100	> 100	> 100	> 100	–	–
O=C(Nc1ccccc1)O/N=C(/CBr)c1ccccc1	21.5	28.4	60.8	30.9	> 100	33.2	44.2	26.7	20	25	48	–	–
COC(=O)/C=C/c1ccccc1N=[S@](C)(=O)c1ccc(C)cc1	16.2	55.1	> 100	70.7	44.2	> 100	26.7	> 100	71.8	> 100	37.1	–	–
CCCCOC(=O)C(=O)C(CCC(=O)c1ccc(C)cc1)C(=O)C=C(C)C (stereo not given)	> 100	> 100	> 100	> 100	> 100	> 100	> 100	> 100	> 100	> 100	> 100	–	–
Cc1ccc(S(=O)(=O)N/C(=C\C=C\c2ccccc2)C(=O)C(C)(C)C)cc1	> 100	> 100	> 100	> 100	> 100	> 100	> 100	–	> 100	> 100	> 100	–	–
CC(C)(CO)CNc1cc(=O)[nH]c(N)n1	> 100	> 100	> 100	> 100	> 100	> 100	> 100	> 100	> 100	> 100	> 100	–	–
